In patent publication US11389447B2 (Janssen Sciences Ireland Unlimited Company, priority 2006, dated 2022):

Assay: Kinetic study: plasma kinetics of TMC278 after single IM or SC injection of a nanosuspension;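 further: healthy male beagle dogs injected in both biceps femoris muscles (IM) or both thoracal sides (SC), total volume 0.2 mL/kg, drug measured in plasma from blood samples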
Assay type: in vivo, male beagle dogs
Settings: male, beagle, dog, plasma, 5 mg/kg

## Cc1cc(C=CC#N)cc(C)c1Nc1ccnc(Nc2ccc(C#N)cc2)n1 [TMC278, 4-[[4-[[4-(2-cyanoethenyl)-2,6-dimethylphenyl]amino]-2-pyrimidinyl]amino]benzonitrile]
intramuscular, plasma concentration of TMC278, single IM 5 mg/kg TMC278 nanosuspension, mean of 2 dogs, 2208 h (d92)
  concentration at 2208 h: 1.41 ng/mL
sc, plasma concentration of TMC278, single SC 5 mg/kg TMC278 nanosuspension, dog 19129, 0 h (d0, predose)
  concentration at 0 h: < 1 ng/mL
sc, plasma concentration of TMC278, single SC 5 mg/kg TMC278 nanosuspension, dog 19129, 1 h
  concentration at 1 h: 1.62 ng/mL
sc, plasma concentration of TMC278, single SC 5 mg/kg TMC278 nanosuspension, dog 19129, 3 h
  concentration at 3 h: 7.96 ng/mL
sc, plasma concentration of TMC278, single SC 5 mg/kg TMC278 nanosuspension, dog 19129, 8 h
  concentration at 8 h: 27.6 ng/mL
sc, plasma concentration of TMC278, single SC 5 mg/kg TMC278 nanosuspension, dog 19129, 24 h (d1)
  concentration at 24 h: 15.7 ng/mL
sc, plasma concentration of TMC278, single SC 5 mg/kg TMC278 nanosuspension, dog 19129, 48 h (d2)
  concentration at 48 h: 34.8 ng/mL
sc, plasma concentration of TMC278, single SC 5 mg/kg TMC278 nanosuspension, dog 19129, 72 h (d3)
  concentration at 72 h: 26.1 ng/mL
sc, plasma concentration of TMC278, single SC 5 mg/kg TMC278 nanosuspension, dog 19129, 144 h (d6)
  concentration at 144 h: 18.9 ng/mL
sc, plasma concentration of TMC278, single SC 5 mg/kg TMC278 nanosuspension, dog 19129, 192 h (d8)
  concentration at 192 h: 17.7 ng/mL
sc, plasma concentration of TMC278, single SC 5 mg/kg TMC278 nanosuspension, dog 19129, 240 h (d10)
  concentration at 240 h: 24.3 ng/mL
sc, plasma concentration of TMC278, single SC 5 mg/kg TMC278 nanosuspension, dog 19129, 312 h (d13)
  concentration at 312 h: 21.7 ng/mL
sc, plasma concentration of TMC278, single SC 5 mg/kg TMC278 nanosuspension, dog 19129, 384 h (d16)
  concentration at 384 h: 21.7 ng/mL
sc, plasma concentration of TMC278, single SC 5 mg/kg TMC278 nanosuspension, dog 19129, 480 h (d20)
  concentration at 480 h: 29.8 ng/mL
sc, plasma concentration of TMC278, single SC 5 mg/kg TMC278 nanosuspension, dog 19129, 648 h (d27)
  concentration at 648 h: 19 ng/mL
sc, plasma concentration of TMC278, single SC 5 mg/kg TMC278 nanosuspension, dog 19129, 696 h (d29)
  concentration at 696 h: 21 ng/mL
sc, plasma concentration of TMC278, single SC 5 mg/kg TMC278 nanosuspension, dog 19129, 864 h (d36)
  concentration at 864 h: 12.7 ng/mL
sc, plasma concentration of TMC278, single SC 5 mg/kg TMC278 nanosuspension, dog 19129, 1032 h (d43)
  concentration at 1032 h: 5.22 ng/mL
sc, plasma concentration of TMC278, single SC 5 mg/kg TMC278 nanosuspension, dog 19129, 1200 h (d50)
  concentration at 1200 h: 6.37 ng/mL
sc, plasma concentration of TMC278, single SC 5 mg/kg TMC278 nanosuspension, dog 19129, 1368 h (d57)
  concentration at 1368 h: 4.78 ng/mL
sc, plasma concentration of TMC278, single SC 5 mg/kg TMC278 nanosuspension, dog 19129, 1536 h (d64)
  concentration at 1536 h: 6.45 ng/mL
sc, plasma concentration of TMC278, single SC 5 mg/kg TMC278 nanosuspension, dog 19129, 1704 h (d71)
  concentration at 1704 h: 3.96 ng/mL
sc, plasma concentration of TMC278, single SC 5 mg/kg TMC278 nanosuspension, dog 19129, 1872 h (d78)
  concentration at 1872 h: 3.66 ng/mL
sc, plasma concentration of TMC278, single SC 5 mg/kg TMC278 nanosuspension, dog 19129, 2040 h (d85)
  concentration at 2040 h: 8.6 ng/mL
sc, plasma concentration of TMC278, single SC 5 mg/kg TMC278 nanosuspension, dog 19129, 2208 h (d92)
  concentration at 2208 h: 3.05 ng/mL
sc, plasma concentration of TMC278, single SC 5 mg/kg TMC278 nanosuspension, dog 19349, 0 h (d0, predose)
  concentration at 0 h: < 1 ng/mL
sc, plasma concentration of TMC278, single SC 5 mg/kg TMC278 nanosuspension, dog 19349, 1 h
  concentration at 1 h: 1.37 ng/mL
sc, plasma concentration of TMC278, single SC 5 mg/kg TMC278 nanosuspension, dog 19349, 3 h
  concentration at 3 h: 8.42 ng/mL
sc, plasma concentration of TMC278, single SC 5 mg/kg TMC278 nanosuspension, dog 19349, 8 h
  concentration at 8 h: 13.8 ng/mL
sc, plasma concentration of TMC278, single SC 5 mg/kg TMC278 nanosuspension, dog 19349, 24 h (d1)
  concentration at 24 h: 28.5 ng/mL
sc, plasma concentration of TMC278, single SC 5 mg/kg TMC278 nanosuspension, dog 19349, 48 h (d2)
  concentration at 48 h: 29.1 ng/mL
sc, plasma concentration of TMC278, single SC 5 mg/kg TMC278 nanosuspension, dog 19349, 72 h (d3)
  concentration at 72 h: 30.6 ng/mL
sc, plasma concentration of TMC278, single SC 5 mg/kg TMC278 nanosuspension, dog 19349, 144 h (d6)
  concentration at 144 h: 32.7 ng/mL
sc, plasma concentration of TMC278, single SC 5 mg/kg TMC278 nanosuspension, dog 19349, 192 h (d8)
  concentration at 192 h: 23 ng/mL
sc, plasma concentration of TMC278, single SC 5 mg/kg TMC278 nanosuspension, dog 19349, 240 h (d10)
  concentration at 240 h: 42 ng/mL
sc, plasma concentration of TMC278, single SC 5 mg/kg TMC278 nanosuspension, dog 19349, 312 h (d13)
  concentration at 312 h: 38.8 ng/mL
sc, plasma concentration of TMC278, single SC 5 mg/kg TMC278 nanosuspension, dog 19349, 384 h (d16)
  concentration at 384 h: 16.6 ng/mL
sc, plasma concentration of TMC278, single SC 5 mg/kg TMC278 nanosuspension, dog 19349, 480 h (d20)
  concentration at 480 h: 21.2 ng/mL
sc, plasma concentration of TMC278, single SC 5 mg/kg TMC278 nanosuspension, dog 19349, 648 h (d27)
  concentration at 648 h: 11 ng/mL
sc, plasma concentration of TMC278, single SC 5 mg/kg TMC278 nanosuspension, dog 19349, 696 h (d29)
  concentration at 696 h: 10.5 ng/mL
sc, plasma concentration of TMC278, single SC 5 mg/kg TMC278 nanosuspension, dog 19349, 864 h (d36)
  concentration at 864 h: 5.49 ng/mL
sc, plasma concentration of TMC278, single SC 5 mg/kg TMC278 nanosuspension, dog 19349, 1032 h (d43)
  concentration at 1032 h: 6.03 ng/mL
sc, plasma concentration of TMC278, single SC 5 mg/kg TMC278 nanosuspension, dog 19349, 1200 h (d50)
  concentration at 1200 h: 3.4 ng/mL
sc, plasma concentration of TMC278, single SC 5 mg/kg TMC278 nanosuspension, dog 19349, 1368 h (d57)
  concentration at 1368 h: 2.52 ng/mL
